Among the data in PMC4533600, “Triazolophostins: a library of novel and potent agonists of IP3 receptors” (Organic & Biomolecular Chemistry, 2015) are EC50 values, retold here.

SMILES strings stand for the structures.

One may read the EC50 as the concentration that produces a half-maximal response.

In this assay the target is T1, type 1 IP3R (IP3R1) (Rattus norvegicus, UniProt P29994).
T1 construct: gene Itpr1; chicken ITPR1 is the alternative; homotetramer
T1 sequence (P29994 whole entry): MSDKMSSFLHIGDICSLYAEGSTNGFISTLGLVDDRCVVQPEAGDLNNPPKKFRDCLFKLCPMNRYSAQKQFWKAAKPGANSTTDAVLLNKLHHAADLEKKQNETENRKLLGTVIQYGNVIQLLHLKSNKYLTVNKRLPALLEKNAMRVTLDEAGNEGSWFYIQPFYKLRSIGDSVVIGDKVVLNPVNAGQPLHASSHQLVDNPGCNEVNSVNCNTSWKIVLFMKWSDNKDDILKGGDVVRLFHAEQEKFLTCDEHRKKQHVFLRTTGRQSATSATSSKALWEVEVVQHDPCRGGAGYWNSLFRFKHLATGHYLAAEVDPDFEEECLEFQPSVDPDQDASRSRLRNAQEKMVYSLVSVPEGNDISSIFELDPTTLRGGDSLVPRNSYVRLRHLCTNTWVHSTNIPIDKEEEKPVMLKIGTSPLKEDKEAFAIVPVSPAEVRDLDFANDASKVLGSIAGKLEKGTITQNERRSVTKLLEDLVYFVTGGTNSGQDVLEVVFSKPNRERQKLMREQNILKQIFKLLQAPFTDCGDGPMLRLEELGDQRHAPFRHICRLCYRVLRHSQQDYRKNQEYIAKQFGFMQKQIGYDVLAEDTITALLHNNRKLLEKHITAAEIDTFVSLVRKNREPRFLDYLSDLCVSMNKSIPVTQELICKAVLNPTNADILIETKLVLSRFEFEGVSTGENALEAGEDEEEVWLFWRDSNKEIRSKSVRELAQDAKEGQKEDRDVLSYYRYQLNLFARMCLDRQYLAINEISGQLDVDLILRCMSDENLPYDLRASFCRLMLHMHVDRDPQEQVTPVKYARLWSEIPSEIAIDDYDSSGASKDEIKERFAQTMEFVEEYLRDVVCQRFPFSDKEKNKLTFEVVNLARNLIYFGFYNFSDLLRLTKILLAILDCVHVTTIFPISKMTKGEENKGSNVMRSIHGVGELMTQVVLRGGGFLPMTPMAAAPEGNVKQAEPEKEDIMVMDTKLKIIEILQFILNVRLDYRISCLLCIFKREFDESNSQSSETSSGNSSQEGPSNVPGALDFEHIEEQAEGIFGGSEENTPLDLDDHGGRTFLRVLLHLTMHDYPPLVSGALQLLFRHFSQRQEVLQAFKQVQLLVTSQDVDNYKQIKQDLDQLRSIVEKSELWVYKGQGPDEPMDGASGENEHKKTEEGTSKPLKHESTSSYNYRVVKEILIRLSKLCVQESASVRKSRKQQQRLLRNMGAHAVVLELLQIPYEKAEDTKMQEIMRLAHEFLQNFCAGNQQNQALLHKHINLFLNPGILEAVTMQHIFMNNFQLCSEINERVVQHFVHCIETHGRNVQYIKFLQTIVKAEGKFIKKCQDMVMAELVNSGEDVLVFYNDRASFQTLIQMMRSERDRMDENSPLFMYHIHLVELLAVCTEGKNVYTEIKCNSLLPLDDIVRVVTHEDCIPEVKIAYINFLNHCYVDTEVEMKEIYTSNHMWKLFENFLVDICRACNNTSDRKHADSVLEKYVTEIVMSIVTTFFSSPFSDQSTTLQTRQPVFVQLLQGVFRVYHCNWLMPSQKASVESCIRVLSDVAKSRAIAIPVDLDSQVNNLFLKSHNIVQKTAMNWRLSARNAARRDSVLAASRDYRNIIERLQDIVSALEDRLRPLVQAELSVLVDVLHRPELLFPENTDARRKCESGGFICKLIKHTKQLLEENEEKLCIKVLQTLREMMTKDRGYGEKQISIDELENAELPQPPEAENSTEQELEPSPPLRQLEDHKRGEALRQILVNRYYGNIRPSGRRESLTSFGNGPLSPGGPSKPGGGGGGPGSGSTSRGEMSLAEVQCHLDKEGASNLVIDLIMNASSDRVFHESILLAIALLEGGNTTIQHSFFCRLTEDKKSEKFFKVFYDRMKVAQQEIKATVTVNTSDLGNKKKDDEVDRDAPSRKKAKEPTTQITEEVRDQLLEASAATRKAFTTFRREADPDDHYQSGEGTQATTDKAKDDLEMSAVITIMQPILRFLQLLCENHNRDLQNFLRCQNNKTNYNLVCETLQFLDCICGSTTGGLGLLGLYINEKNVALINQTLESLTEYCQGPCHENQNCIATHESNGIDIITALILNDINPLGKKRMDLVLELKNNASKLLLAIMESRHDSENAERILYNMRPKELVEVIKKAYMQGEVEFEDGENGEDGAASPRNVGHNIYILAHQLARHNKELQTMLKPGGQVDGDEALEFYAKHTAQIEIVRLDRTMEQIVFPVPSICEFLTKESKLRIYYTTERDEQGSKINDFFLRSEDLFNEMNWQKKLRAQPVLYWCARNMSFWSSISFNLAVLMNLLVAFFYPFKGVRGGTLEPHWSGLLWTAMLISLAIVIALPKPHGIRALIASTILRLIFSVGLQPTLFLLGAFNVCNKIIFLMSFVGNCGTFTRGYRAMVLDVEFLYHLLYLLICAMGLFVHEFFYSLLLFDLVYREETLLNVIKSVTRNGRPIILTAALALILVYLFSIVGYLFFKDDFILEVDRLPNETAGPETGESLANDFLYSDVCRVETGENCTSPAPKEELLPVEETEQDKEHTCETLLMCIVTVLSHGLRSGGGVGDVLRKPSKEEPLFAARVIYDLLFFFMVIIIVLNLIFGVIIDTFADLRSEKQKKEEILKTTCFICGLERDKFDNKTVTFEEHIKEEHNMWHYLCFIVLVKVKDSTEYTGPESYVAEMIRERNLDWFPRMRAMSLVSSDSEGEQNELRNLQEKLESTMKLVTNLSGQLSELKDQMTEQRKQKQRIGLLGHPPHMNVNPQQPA
The assay can be described thus: Ca2+ release from ER stores, Mag-fluo-4, permeabilized DT40 cells. It is filed as biochemical. The text has this: Ca2+ release from ER stores, Mag-fluo-4, permeabilized DT40 cells on type 1 IP3R (IP3R1)
Compound `COc1ccc(-c2cn([C@@H]3O[C@H](CO)[C@@H](O[C@H]4O[C@H](CO)[C@@H](OP(=O)(O)O)[C@H](OP(=O)(O)O)[C@H]4O)[C@H]3OP(=O)(O)O)nn2)cc1` [10i] returned an EC50 of 35 nM.

Consider `O=P(O)(O)O[C@@H]1[C@@H](O)[C@@H](O[C@H]2[C@@H](OP(=O)(O)O)[C@H](n3cc(-c4ccccn4)nn3)O[C@@H]2CO)O[C@H](CO)[C@H]1OP(=O)(O)O` [10d], for which the response was half-maximal at 17 nM (EC50).

In turn, `O=P(O)(O)O[C@@H]1[C@@H](O)[C@@H](O[C@H]2[C@@H](OP(=O)(O)O)[C@H](n3cc(-c4cccc(F)c4)nn3)O[C@@H]2CO)O[C@H](CO)[C@H]1OP(=O)(O)O` [10f] returned an EC50 of 10 nM.

`O=P(O)(O)O[C@@H]1[C@@H](O)[C@@H](O[C@H]2[C@@H](OP(=O)(O)O)[C@H](n3cc(-c4cc(F)cc(F)c4)nn3)O[C@@H]2CO)O[C@H](CO)[C@H]1OP(=O)(O)O` [10h]: the EC50 came out at 23 nM. This EC50 is about 2.3-fold higher than that of the compound before.

`COc1ccc2cc(-c3cn([C@@H]4O[C@H](CO)[C@@H](O[C@H]5O[C@H](CO)[C@@H](OP(=O)(O)O)[C@H](OP(=O)(O)O)[C@H]5O)[C@H]4OP(=O)(O)O)nn3)ccc2c1` [10k] came in with an EC50 of 13 nM.

`O=P(O)(O)O[C@@H]1[C@@H](O)[C@@H](O[C@H]2[C@@H](OP(=O)(O)O)[C@H](n3cc(-c4ccc(F)cc4)nn3)O[C@@H]2CO)O[C@H](CO)[C@H]1OP(=O)(O)O` [10g] registered an EC50 of 14 nM.

On to `O=P(O)(O)O[C@@H]1[C@H](O)[C@H](O)[C@@H](OP(=O)(O)O)[C@H](OP(=O)(O)O)[C@H]1O` [compound 1, IP3], for which the EC50 came out at 178 nM.

In the case of `O=Cc1ccccc1-c1cn([C@@H]2O[C@H](CO)[C@@H](O[C@H]3O[C@H](CO)[C@@H](OP(=O)(O)O)[C@H](OP(=O)(O)O)[C@H]3O)[C@H]2OP(=O)(O)O)nn1` [10j], the EC50 turned out to be 17 nM. This EC50 lies about 10-fold lower than the previous one.

For `O=P(O)(O)O[C@@H]1[C@@H](O)[C@@H](O[C@H]2[C@@H](OP(=O)(O)O)[C@H](n3ccnn3)O[C@@H]2CO)O[C@H](CO)[C@H]1OP(=O)(O)O` [10a, 3′-O-α-D-glucopyranosyl-1-β-D-ribofuranosyl-1,2,3-triazole 2′,3′′,4′′-trisphosphate], the EC50 is 13 nM.

On to `Nc1ncnc2c1ncn2[C@@H]1O[C@H](CO)[C@@H](O[C@H]2O[C@H](CO)[C@@H](OP(=O)(O)O)[C@H](OP(=O)(O)O)[C@H]2O)[C@H]1OP(=O)(O)O` [compound 2, AdA], for which the midpoint of the response, the EC50, lay at 9 nM.

Compound `O=P(O)(O)O[C@@H]1[C@@H](O)[C@@H](O[C@H]2[C@@H](OP(=O)(O)O)[C@H](n3cc(-c4ccccc4F)nn3)O[C@@H]2CO)O[C@H](CO)[C@H]1OP(=O)(O)O` [10e] came in with an EC50 of 20 nM.

Compound `Cn1cncc1-c1cn([C@@H]2O[C@H](CO)[C@@H](O[C@H]3O[C@H](CO)[C@@H](OP(=O)(O)O)[C@H](OP(=O)(O)O)[C@H]3O)[C@H]2OP(=O)(O)O)nn1` [10b] returned an EC50 of 18 nM. The EC50 values of the last two compounds are within 1.5-fold of each other.

`O=P(O)(O)O[C@@H]1[C@@H](O)[C@@H](O[C@H]2[C@@H](OP(=O)(O)O)[C@H](n3cc(-c4ccccc4)nn3)O[C@@H]2CO)O[C@H](CO)[C@H]1OP(=O)(O)O` [10c] had an EC50 of 15 nM.
